Measurements as given in ChEMBL document CHEMBL5661955, “ASAP - In vitro cytotoxicity” (2024).
Values joined by “and” are separate entries in the source; they are usually repeats but may differ in a detail not shown here. Identical values can stand only once.

Experiments:
[1] = Functional assay to measure dose dependent changes in cell viability from drug treatment in Vero E6 miRFP670 cells (cotreated with P-gp inhibitor, CP100356) that are infected with Dengue virus type 2 New Guinea C. […] Cytotoxicity is reported via via analysis of DAPI count using high-content imager. The assay has been performed by KU Leuven.; assay type: toxicity, cell-based, Vero C1008; settings: chlorocebus sabaeus, p-gp concentration 500 nM
[2] = Functional metabolic assay to measure dose dependent changes in cell viability from drug treatment in Vero E6/TMPRSS2 cells (cotreated with P-gp inhibitor, Elacridar). […] Cytotoxicity is reported via measuring absorbance and analysis of MTT/MTS assays in uninfected cells. The assay has been performed by Icahn School of Medicine at Mount Sinai.; assay type: toxicity, cell-based, VeroE6/TMPRSS2; settings: chlorocebus sabaeus, p-gp concentration 2 uM; for CC50: Vero E6/TMPRSS2 cells, with Elacridar (P-gp inhibitor, concentration not stated); for CC10: veroe6/tmprss2
[3] = (§1) Functional CPE-based assay to measure dose dependent changes in cell viability from drug treatment in Vero E6 miRFP670 cells (cotreated with P-gp inhibitor, CP100356). Cells are treated with antiviral candidates that have been serially diluted. Cytotoxicity is reported via analysis of MTS assays in uninfected cells. The assay has been performed by KU Leuven.; assay type: toxicity, Vero C1008; settings: chlorocebus sabaeus, p-gp concentration 500 nM
[4] = as §1, with “cells.” for “cells (cotreated with P-gp inhibitor, CP100356).”; assay type: toxicity, Vero C1008; settings: chlorocebus sabaeus, Vero E6 miRFP670 cells
[5] = with CP100356 (P-gp inhibitor, concentration not stated)
[6] = Vero E6 miRFP670 cells, with CP100356 (P-gp inhibitor, concentration not stated)

Row | Structure (SMILES) | CC50 [1, 5] [µM] | CC50 [2] [µM] | CC10 [2] | CC50 [3, 6] [µM] | CC50 ([1]; vero c1008) | CC50 ([3]; vero c1008) | CC50 [4] [µM]
1 | COc1cc(Br)cc(C(=O)Nc2ccc3c(c2)CNC3)c1 | 27.5 | > 50 | 4.817 µM | 47.5 |  |  | 
2 | COCCNC(=O)[C@H](Nc1ccc2c(c1)CNC2)c1cc(Cl)cc(C2CC2)c1 | > 50 | > 50 | > 50 µM | > 50 |  |  | 
3 | O=C(NCC(F)F)[C@H](Nc1ccc2c(c1)CNC2)c1cc(Cl)cc(C2CC2)c1 |  | > 50 |  | > 50 | > 50 µM and 21.1 µM and 27.1 µM | 46.9 µM and 47.6 µM | 
4 | O=C(NC[C@H]1CCCO1)[C@H](Nc1ccc2c(c1)CNC2)c1cc(Cl)cc2[nH]ncc12 | > 50 | > 50 | > 50 µM | > 50 |  |  | 
5 | O=C(O)Cc1c[nH]c2cc(-c3cc(Cl)cc(NC(=O)OCc4ccccc4)c3)ccc12 | 18 |  |  | 32.1 |  |  | 
6 | Cc1cc(C(=O)Nc2ccc3c(c2)CNC3)c2cn[nH]c2c1 | 24 |  | 24.901 µM and 9.914 µM | > 50 |  |  | 
7 | Cn1cc2cc(Cl)cc(C(=O)Nc3ccc4c(c3)CNC4)c2n1 | 3.58 | > 50 | > 50 µM | 2.75 |  |  | 
8 | O=C(Nc1cc(Cl)cc(-c2cnn(Cc3ccc(C(=O)O)cc3)c2)c1)OCc1ccccc1 | 24 |  |  | 35.5 |  |  | 
9 | Nc1cc(Cl)cc(C(=O)Nc2ccc3c(c2)CNC3)c1N | > 50 | > 50 | < 0.023 µM | > 50 |  |  | 
10 | N#CCCNC(=O)[C@H](Nc1ccc2c(c1)CNC2)c1cc(Cl)cc(C2CC2)c1 | 24.2 | > 50 | > 50 µM | > 50 |  |  | 
11 | O=C(Nc1ccc2c(c1)CNC2)c1cc(Br)cc2[nH]c([C@H]3CCOC3)nc12 | 3.68 | 26.1 | 0.852 µM | 5.11 |  |  | 
12 | FC(F)(F)Oc1cc(Cl)cc2c(Cc3ccc(-c4nnn[nH]4)cc3)c[nH]c12 | 11.1 |  |  | 30.6 |  |  | 
13 | CNC(=O)[C@H](Nc1ccc2c(c1)CNC2)c1cc(Cl)cc(C2CC2)c1 | > 50 | > 50 | > 50 µM | > 50 |  |  | 
14 | N#C[C@H](Nc1ccc2c(c1)CNC2)c1cc(Cl)cc(C2CC2)c1 | > 50 | > 50 | > 50 µM | 46.5 |  |  | 
15 | O=C(Nc1ccc2c(c1)CNC2)c1cc(F)cc2[nH]nnc12 | > 50 | > 50 | > 50 µM | > 50 |  |  | 
16 | Clc1cc(CNc2ccc3c(c2)CNC3)c2cn[nH]c2c1 | 21.4 |  |  | 29.8 |  |  | 
17 | O=C(NC1CCOCC1)[C@H](Nc1ccc2c(c1)CNC2)c1cc(Cl)cc(C2CC2)c1 | > 50 | > 50 | > 50 µM | 49.9 |  |  | 
18 | Cn1cc(CNC(=O)[C@H](Nc2ccc3c(c2)CNC3)c2cc(Cl)cc(C3CC3)c2)cn1 | > 50 | > 50 |  | > 50 |  |  | 
19 | O=C(Nc1ccc2c(c1)CNC2)c1cc(C(F)(F)F)cc2[nH]ccc12 | > 50 | > 50 | > 50 µM | > 50 |  |  | 
20 | Cn1cc(CCc2nc3c(C(=O)Nc4ccc5c(c4)CNC5)cc(Cl)cc3[nH]2)cn1 | > 50 | > 50 | 17.311 µM | > 50 |  |  | 
21 | O=C(Nc1ccc2c(c1)CNC2)c1cc(F)cc2[nH]ncc12 | > 50 | > 50 | > 50 µM | > 50 |  |  | 
22 | COC(=O)c1cc(Br)cc2c(Cc3ccc(-c4nnn[nH]4)cc3)c[nH]c12 | 9.83 |  |  | 36.9 |  |  | 
23 | O=C(Nc1ccc2c(c1)CCNCC2)c1cc(Cl)cc2[nH]ncc12 | > 50 | 44.2 | 7.014 µM | > 50 |  |  | 

Row | Structure (SMILES) | CC50 [1, 5] [µM] | CC50 [2] [µM] | CC10 [2] | CC50 [3, 6] [µM] | CC50 ([1]; vero c1008) | CC50 ([3]; vero c1008) | CC50 [4] [µM]
24 | O=C(Nc1ccc2c(c1)CNC2)c1cc(Br)cc2[nH]ncc12 | > 50 | > 50 | > 50 µM | > 50 |  |  | 
25 | O=C(NC[C@H]1CCCO1)[C@H](Nc1ccc2c(c1)CNC2)c1cc(Cl)cc(C2CC2)c1 | > 50 | > 50 | > 50 µM | 39.2 |  |  | 
26 | COC(=O)CNC(=O)[C@H](Nc1ccc2c(c1)CNC2)c1cc(Cl)cc(C2CC2)c1 | 2.05 | > 50 |  | > 50 |  |  | 
27 | Cc1ccc(NC(=O)c2cc(Cl)cc3[nH]ncc23)cc1CN | > 50 | > 50 | 0.133 µM | > 50 |  |  | 
28 | Cc1c(C(=O)Nc2cc([C@H]3CCOC3)ccn2)cc(C2CC2)n1C | > 50 | > 50 | > 50 µM |  | 29.2 µM | 9.14 µM and > 50 µM | 
29 | O=C(NCc1ccc(F)cc1)[C@H](Nc1ccc2c(c1)CNC2)c1cc(Cl)cc2[nH]ncc12 | > 50 |  | > 50 µM | > 50 |  |  | 
30 | N[C@H]1Cc2ccc(NC(=O)c3cc(Cl)cc4[nH]ncc34)cc2C1 | > 50 | > 50 | > 50 µM | > 50 |  |  | 
31 | O=C(Nc1ccc2c(c1)CNC2)c1cc(Cl)cc2ccncc12 | > 50 | > 50 | > 50 µM | > 50 |  |  | 
32 | N#Cc1cc(C(=O)Nc2ccc3c(c2)CNC3)cc(C(F)(F)F)c1 | 0.739 | > 50 | > 50 µM | > 50 |  |  | 
33 | O=C1Cc2c(cc(Br)cc2C(=O)Nc2ccc3c(c2)CNC3)N1 | 27.7 | > 50 |  | > 50 |  |  | 
34 | CN(c1ccc2c(c1)CNC2)[C@H](C(=O)NCC(F)F)c1cc(Cl)cc(C2CC2)c1 | 14.3 |  |  | 9.32 |  |  | 
35 | CC(C)Oc1ccc(S(=O)(=O)Nc2ccc(Cl)cc2C(=O)O)cc1 |  |  |  |  |  |  | > 50
36 | N#C[C@H](Nc1cncc(-c2nn[nH]n2)c1)c1cc(Cl)cc(NC(=O)OCc2ccccc2)c1 |  |  |  |  |  |  | > 50
37 | O=C(Nc1cc(Cl)cc([C@H]2[C@H](CO)[C@@H]2c2cccc(-c3nn[nH]n3)c2)c1)OCc1ccccc1 |  |  |  |  |  |  | > 50
38 | O=C(Nc1cccc(-c2nnn[nH]2)c1)c1cc(Cl)cc2[nH]ncc12 |  |  |  |  |  |  | > 50
39 | O=C1Cc2c(cccc2C(=O)Nc2ccc3c(c2)CCNCC3)N1 | > 50 |  |  | > 50 |  |  | 
40 | O=C(Nc1cc(Cl)cc(C(=O)Nc2cccc([C@H]3C[C@H]3C(=O)O)c2)c1)OCc1ccccc1 |  |  |  |  |  |  | > 50
41 | Cc1c(C(=O)Nc2cc(-c3cccnc3)ccn2)cc(C2CC2)n1C | 18.9 | > 50 | 13.062 µM | > 50 | 11.9 µM | 40.1 µM | 
42 | COc1ccc(S(=O)(=O)Nc2cc(F)c(Cl)cc2C(=O)NCC(C)C)cc1 |  |  |  |  |  |  | 4.25
43 | O=C(Nc1ccc2c(c1)CNC2)c1cc(Cl)cc2[nH]c(-c3c[nH]c(=O)c(Br)c3)nc12 | 14.3 |  |  | > 50 |  |  | 
44 | O=C(Nc1cnc2c(c1)CNC2)c1cc(F)cc2[nH]ncc12 | > 50 |  |  | > 50 |  |  | 
45 | O=C(NCC(F)F)[C@H](Nc1cc2c(cc1Br)CNC2)c1cc(Cl)cc(C2CC2)c1 | 6.39 |  |  | 5.82 |  |  | 
46 | O=C(Nc1ccc2c(c1)CN[C@H]2CC1CC1)c1cc(F)cc2[nH]ncc12 | 18.7 |  |  | 11.8 |  |  | 

Row | Structure (SMILES) | CC50 [1, 5] [µM] | CC50 [2] [µM] | CC10 [2] | CC50 [3, 6] [µM] | CC50 ([1]; vero c1008) | CC50 ([3]; vero c1008) | CC50 [4] [µM]
47 | O=C1Nc2ccc(C(=O)Nc3ccc4c(c3)CNC4)cc2C1=O | 25.7 |  |  | > 50 |  |  | 
48 | CC(C)(C)OC(=O)N1Cc2ccc(N[C@H](C(=O)O)c3cc(Cl)cc4[nH]ncc34)cc2C1 | 28.9 |  |  | > 50 |  |  | 
49 | O=C(NCC1CC1)c1cc(Cl)ccc1NS(=O)(=O)c1ccc(Oc2ccccc2Cl)cc1 |  |  |  |  |  |  | 5.46
50 | CCOCCNC(=O)c1cc(Cl)ccc1NS(=O)(=O)c1ccc(Oc2ccccc2Cl)cc1 |  |  |  |  |  |  | 8.81
51 | NCc1ccc(-c2csc3cc(C(=O)Nc4ccc5c(c4)CNC5)ccc23)cc1 | 4.14 |  |  | 31.9 |  |  | 
52 | O=C(Nc1cc(Cl)cc(C(=O)Nc2ccc(-n3nn[nH]c3=O)cc2)c1)OCc1ccccc1 | 31.8 |  |  | > 50 |  |  | 
53 | O=C(NCC(F)F)[C@H](Nc1cnc2c(c1)CNC2)c1cc(Cl)cc(C2CC2)c1 | > 50 |  |  | > 50 |  |  | 
54 | NCc1cccc(NC(=O)c2cc(Cl)cc(C3CC3)c2)c1 |  |  |  |  |  |  | 46.6
55 | NCc1csc2cc(C(=O)Nc3ccc4c(c3)CNC4)ccc12 | 5.74 |  |  | > 50 |  |  | 
56 | COc1cc(-c2cc(Cl)cc(NC(=O)OCc3ccccc3)c2)c(OC)cc1CC(=O)O |  |  |  |  |  |  | 49.8
57 | NCc1cccc(NC(=O)c2cc(Cl)cc3[nH]ncc23)c1 |  |  |  |  |  |  | > 50
58 | O=C(Nc1ccc2c(c1)CNC2)c1cccc2c(C3CNC3)n[nH]c12 | > 50 |  |  | > 50 |  |  | 
59 | O=C(NC1CCCCC1)c1cc(Cl)ccc1NS(=O)(=O)c1ccc(Oc2ccccc2Cl)cc1 |  |  |  |  |  |  | 3.46
60 | O=C(Nc1cccc(-c2nnn[nH]2)c1)c1cc(Cl)cc(C2CC2)c1 |  |  |  |  |  |  | > 50
61 | CC(=O)NCc1cccc(NC(=O)c2cc(Cl)cc(NC(=O)OCc3ccccc3)c2)c1 |  |  |  |  |  |  | 38
62 | O=C(Nc1ccc2c(c1)CNC2)c1cc(Br)cc2c1nc1n2CCCC1 | 1.27 |  |  | 0.847 |  |  | 
63 | C[C@H]1C(=O)Nc2ccc(C(=O)Nc3ccc4c(c3)CNC4)cc21 | > 50 |  |  | > 50 |  |  | 
64 | O=C(Nc1cc(Cl)cc(-c2cccc3c(C(=O)O)cccc23)c1)OCc1ccccc1 |  |  |  |  |  |  | < 0.391
65 | NCc1cc(Cl)cc(C(=O)Nc2ccc3c(c2)CNC3)c1 |  |  |  |  |  |  | > 50
66 | CCc1cc(C(=O)Nc2cccc(-c3nnn[nH]3)c2)sc1-c1ccc(Cl)cc1 | > 50 | > 50 | > 50 µM | 38.6 |  |  | 
67 | N[C@H]1Cc2ccc(NC(=O)c3cccc4c3CC(=O)N4)cc2C1 | > 50 |  |  | > 50 |  |  | 
